Patent publication US20080318269A1, “Devices and Methods for the Analysis of Biofilm” (priority 2005, published 2008)
“Also recorded” adds a separate entry of the source. Where two headings read alike, the source gives them in different places.

What was measured:
[1] = system: Staphylococcus aureus (Staph) planktonic bacteria; assay: MBEC assay, Staph planktonic bacteria exposed to antibiotics and combinations (Example 5); type: cell-based; settings: number of the 12 isolates from device associated infections that are resistant; 24 hours exposure
[2] = system: Staphylococcus aureus (Staph) biofilm; assay: MBEC assay, Staph biofilms exposed to antibiotics and combinations (Example 5); type: cell-based; settings: number of the 12 isolates from device associated infections that are resistant; 24 hours exposure
[3] = system: Pseudomonas aeruginosa (Ps) planktonic bacteria; assay: MBEC assay, Ps planktonic bacteria exposed to antibiotics and combinations (Example 5); type: cell-based; settings: number of the 12 isolates from Cystic Fibrosis patients that are resistant; 24 hours exposure
[4] = system: Pseudomonas aeruginosa (Ps) biofilm; assay: MBEC assay, Ps biofilms exposed to antibiotics and combinations (Example 5); type: cell-based; settings: number of the 12 isolates from Cystic Fibrosis patients that are resistant; 24 hours exposure
[5] = system: P. aeruginosa planktonic bacteria shed from the biofilm; assay: P. aeruginosa biofilm assay kit, planktonic MIC read on challenge plate (Example 8); type: cell-based, Pseudomonas aeruginosa; settings: challenge 35° C. for 24 hours; breakpoint concentrations
P. aeruginosa biofilm = P. aeruginosa biofilm assay kit, biofilm MBEC read on recovery plate (Example 8); type: cell-based, Pseudomonas aeruginosa; settings: challenge 35° C. for 24 hours; recovery 20 to 24 hours; breakpoint concentrations
[6] = system: Staphylococcus aureus planktonic forms; assay: Staphylococcus test plate, planktonic sensitivity (Example 9); type: cell-based; settings: figure in the label = antibiotic concentration, breakpoint concentrations
[7] = system: Staphylococcus aureus biofilm; assay: Staphylococcus test plate, biofilm sensitivity (Example 9); type: cell-based; settings: figure in the label = antibiotic concentration, breakpoint concentrations
[8] = system: planktonic cultures of C. albicans; assay: Planktonic sensitivity (MIC, MFC) of C. albicans to antifungal agents; type: cell-based, Candida albicans
Experimental: (§1) Biofilm susceptibility testing uses the pegged lid of the assembly, now containing biofilms formed after rocking in the tray for 24 hour. Each peg on the lid was gently washed once in […] of phosphate buffered saline solution (PBSS) in a 96-well microtiter plate (Falcon). The pegged lid was then transferred to another 96 well microtiter plate containing 2 fold dilutions antifungal agent in 200 μl of RPMI 1640 (Sigma, St. Louis, Mo.) or RPMI 1640 containing 1% DMSO (see test drug section). After the pegs were exposed to the drugs for 24 hours, the pegged lid was removed and gently rinsed twice in saline. The pegged lid was then placed on a 96 well plate containing RPMI 1640 recovery medium. The pegs were sonicated for 5 minutes (Candida spp.) or 7 minutes (Aspergillus) in an ultrasonicator to dislodge adherent cells into the recovery medium. Aliquots of 20 μl of the recovery medium were spot plated on SDA (Candida spp) or Rose Bengal Agar (A. fumigatus) to obtain the MBEC. The assembly was also used to determine the minimum inhibitory concentration (MIC) and minimum fungicidal concentration (MFC). The turbidity of the wells that contained the antibiotic and planktonic cells which were shed from the biofilm was measured at […] to obtain the MIC. A 20 μl sample from each well was also spot plated onto Sabouraud Dextrose agar (Candida spp) or Rose Bengal Agar (A. fumigatus) to obtain the MFC.
Minimum Inhibitory Concentrations (MIC) and Minimum Fungicidal Concentrations (MFC) were determined according to the guidelines of the National Committee for Clinical laboratory Standards (NCCLS). Briefly, Candida sp. were maintained on polystyrene spheres at −70° C. until plating. […]
(§2) The test wells were then incubated at 37° C. for 24 hours with the antifungal drugs. MICs for Candida were obtained after incubation by reading the turbidity at 650 nm on a microtiter plate reader (Softmax, VWR). […] MFCs were determined for Aspergillus by plating 100 μl from each well onto Rose Bengal Agar, followed by spreading with a sterile glass spreader. […]

[9] = system: C. tropicalis planktonic cells; assay: Planktonic sensitivity (MIC) of C. tropicalis to antifungal agents; type: cell-based, Candida tropicalis; settings: C. tropicalis strain tested
Experimental: Biofilm susceptibility testing uses the pegged lid of the assembly, now containing biofilms formed after rocking in the tray for 24 hour. Each peg on the lid was gently washed once in […] of phosphate buffered saline solution (PBSS) in a 96-well microtiter plate (Falcon). The pegged lid was then transferred to another 96 well microtiter plate containing 2 fold dilutions antifungal agent in 200 μl of RPMI 1640 (Sigma, St. Louis, Mo.) or RPMI 1640 containing 1% DMSO (see test drug section). After the pegs were exposed to the drugs for 24 hours, the pegged lid was removed and gently rinsed twice in saline. The pegged lid was then placed on a 96 well plate containing RPMI 1640 recovery medium. […] The turbidity of the wells that contained the antibiotic and planktonic cells which were shed from the biofilm was measured at […] to obtain the MIC. […]
Minimum Inhibitory Concentrations (MIC) and Minimum Fungicidal Concentrations (MFC) were determined according to the guidelines of the National Committee for Clinical laboratory Standards (NCCLS). […]
as §2

Candida biofilms = assay: Minimum biofilm eradication concentration assay, Candida spp.; type: cell-based; settings: sessile (biofilm) Candida
Experimental: (§3) Biofilm formation and measurement of antimicrobial sensitivity of Candida and Aspergillus biofilms were performed using an assembly of the present invention. The device features a microtliter plate lid with 96 pegs or projections distributed on the lid. Each peg provided the surface for microorganism to adhere, colonize and form a uniform biofilm. The pegs fit precisely into the wells of a standard 96-well microtiter plate. The lid was used in conjunction with a base having special troughs for growing, washing, and incubating fungi. Colonies of Candida sp. were picked from 24 hour cultures on Sabouraud Dextrose agar (SDA) (BBL Microbiological Systems, Cockeysville, Md.) and placed into Mueller-Hinton Broth (MHB) (Difco Laboratories, Detroit Mich.) such that the suspension matched a McFarland standard of 1.0. This suspension was then diluted 1:30 in MHB, and 25 ml were pipetted into the trough chamber of the base. The closed assembly (lid with pegs positioned on the base) was placed on a Hoeffer Red Rocker (VWR, Scientific) set to rock the plates 3.5 cycles per minute in a 37° C. incubator. C. albicans and C. tropicalis were incubated aerobically, while C. glabrata was incubated in 10% CO2. It was determined in preliminary experiments that C. glabrata required 10% CO2 atmosphere for biofilms to form.
as §1
Drugs tested. […]

[10] = system: biofilm cells of C. albicans; assay: Minimum biofilm eradication concentration assay, C. albicans; type: cell-based, Candida albicans; settings: 24 hours exposure
Experimental: as §3, with “The closed assembly (lid with pegs positioned on the base) was placed on a Hoeffer Red Rocker (VWR, Scientific) set to rock the plates 3.5 cycles per minute in a 37° C. incubator. C. albicans and C. tropicalis were incubated aerobically, while C. glabrata was incubated in 10% CO2.” left out
Biofilm susceptibility testing uses the pegged lid of the assembly, now containing biofilms formed after rocking in the tray for 24 hour. […] The turbidity of the wells that contained the antibiotic and planktonic cells which were shed from the biofilm was measured at […] to obtain the MIC. […]

[11] = system: invasive pulmonary, sinus and cerebral aspergillosis; settings: cited from earlier work
[12] = planktonic cultures of C. albicans, 24 hours

## gentamicin [GM]
[1]
  Staph resistance to individual antibiotics and antibiotic combinations, Planktonic: 6
[2]
  Staph resistance to individual antibiotics and antibiotic combinations, Biofilm: 10
[3]
  Ps resistance to individual antibiotics and antibiotic combinations, Planktonic: 8
[4]
  Ps resistance to individual antibiotics and antibiotic combinations, Biofilm: 12
[5]
  Number of P. aeruginosa isolates resistant to individual antibiotics and antibiotic combinations, Planktonic: 8
P. aeruginosa biofilm
  Number of P. aeruginosa isolates resistant to individual antibiotics and antibiotic combinations, Biofilm: 12
[6]; listed as GM2
  Number of Staphylococcus aureus isolates resistant to individual antibiotics and antibiotic combinations, Planktonic: 4
[6]; listed as GM4
  Number of Staphylococcus aureus isolates resistant to individual antibiotics and antibiotic combinations, Planktonic: 3
[7]; listed as GM2
  Number of Staphylococcus aureus isolates resistant to individual antibiotics and antibiotic combinations, Biofilm: 11
[7]; listed as GM4
  Number of Staphylococcus aureus isolates resistant to individual antibiotics and antibiotic combinations, Biofilm: 10

## OC(Cn1cncn1)(Cn1cncn1)c1ccc(F)cc1F [fluconazole, Fluconazole]
[8]; C. albicans strain tested, planktonic
  classification by MIC criterion (MIC less than or equal to 8 μg/ml = susceptible): susceptible
[9]
  classification by MIC criterion (MIC less than or equal to 8 μg/ml = susceptible): susceptible

## Polymyxin B
Candida biofilms
  effectiveness against Candida growing as a biofilm: ineffective

## COC1=CC(=O)C[C@@H](C)[C@]12Oc1c(Cl)c(OC)cc(OC)c1C2=O [Griseofulvin]
Candida biofilms
  effectiveness against Candida growing as a biofilm: ineffective

## Colistin [CLO]
[3]
  Ps resistance to individual antibiotics and antibiotic combinations, Planktonic: 2
[4]
  Ps resistance to individual antibiotics and antibiotic combinations, Biofilm: 12
[5]
  Number of P. aeruginosa isolates resistant to individual antibiotics and antibiotic combinations, Planktonic: 2
P. aeruginosa biofilm
  Number of P. aeruginosa isolates resistant to individual antibiotics and antibiotic combinations, Biofilm: 12

## C[C@@H]1[C@H](O)[C@@H](C)/C=C/C=C/C=C/C=C/C=C/C=C/C=C/[C@H](O[C@@H]2O[C@H](C)[C@@H](O)[C@H](N)[C@@H]2O)C[C@@H]2O[C@](O)(C[C@@H](O)C[C@@H](O)[C@H](O)CC[C@@H](O)C[C@@H](O)CC(=O)O[C@H]1C)C[C@H](O)[C@H]2C(=O)O [amphotericin B, Amphotericin B]
[8]; [12]
  average MFC: 0.02 µg/mL
  average MIC: 0.09 µg/mL
[10]
  average concentration required to kill biofilm cells (MBEC): 12 µg/mL
Candida biofilms
  effectiveness against Candida growing as a biofilm: most effective
[11]; invasive cerebral aspergillosis
  crude mortality rate of treated patients: 99%
[11]; invasive pulmonary aspergillosis
  crude mortality rate of treated patients: 86%
[11]; invasive sinus aspergillosis
  crude mortality rate of treated patients: 66%

## C[C@@H]1[C@H](O)[C@@H](C)/C=C/C=C/CC/C=C/C=C/C=C/C=C/C(O[C@H]2O[C@H](C)[C@@H](O)[C@H](N)[C@@H]2O)CC2O[C@](O)(CC(O)C(O)CCC(O)CC(O)CC(O)CC(=O)O[C@H]1C)CC(O)C2C(=O)O (some centres unmarked) [nystatin, Nystatin]
Candida biofilms
  effectiveness against Candida growing as a biofilm: effective; also recorded: most effective
